Measurements reported in paper PMC4359714 (Naunyn-Schmiedeberg's Archives of Pharmacology, 2015).
Read-outs that look alike come from different tables or passages of the source.

Key:
[1] = Plasma protein binding by ultracentrifugation; format: in vitro ADME; settings: male, rat plasma
Procedure: The unbound fraction in plasma was determined by ultracentrifugation.

rats = experiment: Open field activity; format: in vivo, rat; settings: 100 mg/kg, 2 h before; 60 min; not significantly different from vehicle (14,484 ± 1686 cm)
Procedure: Rats were habituated in a reversed light cycle room in home cages for at least 1 week and acclimated to the testing room for 1 h prior to dosing. TRPM8 antagonist (10, 30, or 100 mg/kg) or vehicle (5 % Tween 80 in OraPlus®) was injected 2 h before placing an animal in the open-field apparatus. Open-field activity was measured using a system that counts interruptions of a set of photobeams for the course of 60 min (Kinder Scientific, Poway, CA). To begin a session, animals were removed from the home cage and placed individually into an independent Plexiglas box (41 cm L × 41 cm W × 38 cm H) surrounded by a frame consisting of 32 photocells (16Y and 16X) that track the movement of the animal. Photobeam breaks were used as an indication of activity and were measured as the following parameters per minute: basic movements (beam breaks), distance traveled (cm), time spent (s), and number of repetitive beam breaks (i.e., stereotypic movement). Chlordiazepoxide, which consistently elicits a decrease in open field activity, was used as a positive control. Chlordiazepoxide was formulated in saline at 5.6 mg/kg i.p. and dosed 30 min before the start of the open field assay.

[2] = tested on: TRPM8-mediated icilin-induced wet-dog shakes in rats; experiment: Icilin-induced wet-dog shake (WDS) model; format: in vivo, rat
Procedure: The TRPM8 antagonist (1, 3, or 10 mg/kg) or vehicle control (5 % Tween 80 in OraPlus®) was administered p.o. 90 min prior to administration of icilin (0.5 mg/kg, 1 ml/kg, i.p., 100 % PEG 400). […] Rats were viewed through transparent Plexiglas® observation cylinders that were placed on a custom, opaque, plastic apparatus such that one rat could not view another rat.
In vivo IC50 and IC90 estimates using WDS model data were determined by fitting a sigmoidal dose-response curve to individual animal number of WDS versus resulting plasma concentration. Behavioral and electrophysiological data are expressed as mean ± standard error of the mean (S.E.M.). Results were analyzed using one-way analysis of variance (ANOVA) with Dunnett’s multiple-comparisons post-hoc test for significance relative to vehicle. […] Actual gram values are plotted on a logarithmic scale Y-axis of the figures for convenience. Statistical calculations and graphs were made using GraphPad Prism 5.01 (GraphPad Software Inc, San Diego, CA). Percent responders to menthol stimulation in the ex vivo skin-nerve preparation were compared under vehicle and antagonist conditions through the use of Fisher’s exact test. Responses of C fibers to increasing mechanical forces under vehicle or antagonist conditions were compared using a two-way ANOVA with a Bonferonni post-hoc analysis.

rat TRPV1 = molecular target: T1, rat TRPV1 (Rattus norvegicus, UniProt O35433); experiment: Luminescence (aequorin) readout of intracellular calcium, CHO cells expressing rat TRPV1, capsaicin activation; format: cell-based; settings: 0.5 uM capsaicin, read-out: rTRPV1 IC50
T1 construct: expressed in transfected cells; host or cells: CHO, constitutive expression, co-transfected with aequorin
Text: (§1) Stable Chinese hamster ovary (CHO) cell lines expressing rat TRPA1, rat TRPM8, rat TRPV3, and human TRPV4 were generated using the tetracycline-inducible T-REx™ expression system from Invitrogen (Carlsbad, CA) and a stable CHO cell line expressing rat TRPV1 was generated using a constitutive expression system (Klionsky et al. [2007]). To enable a luminescence readout based on intracellular increase in calcium (Le Poul et al. [2002]), each cell line was also co-transfected with pcDNA3.1 plasmid containing jelly fish aequorin cDNA. Twenty-four hours before the assay, cells were seeded in 96-well plates and all TRP channel expression, except for TRPV1, was induced with 0.5 ug/mL tetracycline. […] Luminescence was measured by a CCD camera-based FLASH-luminometer built by Amgen, Inc. The following agonists were used to activate TRP channels: 0.5 uM capsaicin for TRPV1, 80 uM allyl isothiocyanate (AITC) for TRPA1, 1 uM icilin or cold buffer (12 °C) for TRPM8, 200 uM aminoethoxydiphenyl borate (2-APB) for TRPV3, and 1 uM 4α-phorbol 12,13-didecanoate (4α-PDD) for TRPV4. Antagonist IC50 values were calculated using GraphPad Prism 4.01 (GraphPad Software Inc, San Diego, CA).

rat TRPA1 = molecular target: T2, rat TRPA1 (Rattus norvegicus, UniProt Q6RI86); experiment: Luminescence (aequorin) readout of intracellular calcium, CHO cells expressing rat TRPA1, AITC activation; format: cell-based
T2 construct: expressed in transfected cells; host or cells: CHO, T-REx tetracycline-inducible system (Invitrogen), co-transfected with aequorin
Text: as §1

T2 sequence (Q6RI86 whole entry): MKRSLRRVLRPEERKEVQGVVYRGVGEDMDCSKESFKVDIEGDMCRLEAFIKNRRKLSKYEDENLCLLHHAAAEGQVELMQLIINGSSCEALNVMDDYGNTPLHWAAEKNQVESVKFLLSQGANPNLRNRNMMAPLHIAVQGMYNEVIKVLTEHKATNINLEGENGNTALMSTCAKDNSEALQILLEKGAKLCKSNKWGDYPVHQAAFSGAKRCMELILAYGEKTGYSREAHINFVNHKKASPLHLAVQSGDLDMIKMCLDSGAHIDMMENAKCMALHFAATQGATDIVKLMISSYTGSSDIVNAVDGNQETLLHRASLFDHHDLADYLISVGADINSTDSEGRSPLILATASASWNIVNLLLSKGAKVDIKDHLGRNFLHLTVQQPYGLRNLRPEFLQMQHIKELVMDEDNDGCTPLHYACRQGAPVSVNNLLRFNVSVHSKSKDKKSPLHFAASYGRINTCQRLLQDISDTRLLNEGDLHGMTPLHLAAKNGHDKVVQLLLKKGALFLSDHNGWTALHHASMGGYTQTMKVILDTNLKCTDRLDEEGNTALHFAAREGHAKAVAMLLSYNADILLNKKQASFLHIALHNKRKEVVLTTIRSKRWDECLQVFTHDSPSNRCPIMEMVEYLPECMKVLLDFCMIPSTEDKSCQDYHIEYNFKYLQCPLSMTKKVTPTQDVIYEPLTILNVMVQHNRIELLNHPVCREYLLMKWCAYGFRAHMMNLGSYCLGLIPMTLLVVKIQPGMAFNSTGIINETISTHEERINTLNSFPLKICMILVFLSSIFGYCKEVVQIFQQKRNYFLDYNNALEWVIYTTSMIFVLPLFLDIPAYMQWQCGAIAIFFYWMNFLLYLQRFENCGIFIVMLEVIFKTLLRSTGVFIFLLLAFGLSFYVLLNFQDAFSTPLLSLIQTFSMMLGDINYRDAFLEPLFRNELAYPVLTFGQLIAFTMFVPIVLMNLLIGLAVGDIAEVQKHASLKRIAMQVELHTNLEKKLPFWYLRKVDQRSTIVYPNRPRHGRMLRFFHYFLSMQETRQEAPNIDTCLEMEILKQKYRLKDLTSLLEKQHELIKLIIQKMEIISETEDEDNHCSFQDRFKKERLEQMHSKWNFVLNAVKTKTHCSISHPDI
T1 sequence (O35433 whole entry): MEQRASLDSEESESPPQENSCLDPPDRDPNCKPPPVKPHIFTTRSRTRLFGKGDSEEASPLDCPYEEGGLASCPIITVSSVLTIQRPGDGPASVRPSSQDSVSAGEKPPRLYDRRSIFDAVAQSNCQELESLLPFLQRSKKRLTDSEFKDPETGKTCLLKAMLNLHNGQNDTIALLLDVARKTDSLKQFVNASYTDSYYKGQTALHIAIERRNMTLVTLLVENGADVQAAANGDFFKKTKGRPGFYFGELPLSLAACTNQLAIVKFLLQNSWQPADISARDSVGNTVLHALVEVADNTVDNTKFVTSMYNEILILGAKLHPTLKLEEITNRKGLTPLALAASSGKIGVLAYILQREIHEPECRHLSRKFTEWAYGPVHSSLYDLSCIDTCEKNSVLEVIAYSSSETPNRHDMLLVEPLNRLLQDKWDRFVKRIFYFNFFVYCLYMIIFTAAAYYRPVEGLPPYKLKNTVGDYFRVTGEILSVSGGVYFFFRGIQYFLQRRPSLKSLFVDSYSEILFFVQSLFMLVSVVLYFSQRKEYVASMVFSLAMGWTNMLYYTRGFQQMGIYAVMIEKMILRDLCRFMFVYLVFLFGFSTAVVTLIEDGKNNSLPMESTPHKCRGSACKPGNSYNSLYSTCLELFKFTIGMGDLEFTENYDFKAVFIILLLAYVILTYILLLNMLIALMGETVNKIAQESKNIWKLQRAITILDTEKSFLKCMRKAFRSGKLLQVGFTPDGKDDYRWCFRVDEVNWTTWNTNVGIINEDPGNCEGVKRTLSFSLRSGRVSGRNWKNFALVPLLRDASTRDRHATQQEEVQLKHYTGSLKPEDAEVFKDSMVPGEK

fraction unbound at 15 min, 5 ug/mL [1]: 0.119 | total distance traveled, open field (rats): 13,640 ± 623 cm | IC90 ([2]; Rattus norvegicus, ip, unbound plasma concentration, icilin 0.5 mg/kg i.p., read-out: Rat PD IC90 (unbound mean in vivo IC90, WDS model)): 0.099 µM | IC50 (rat TRPV1): > 25 µM | IC50 (rat TRPA1; 80 uM AITC, read-out: rTRPA1 IC50): > 25 µM | IC50 (rat TRPA1; agonism, read-out: rTRPA1 agonism IC50): > 25 µM
SMILES: C[C@H](NC(=O)N1CCc2cccnc2[C@H]1c1ccc(C(F)(F)F)cc1)C(F)(F)F [AMG2850, (R)-8-(4-(trifluoromethyl)phenyl)-N-((S)-1,1,1-trifluoropropan-2-yl)-5,6-dihydro-1,7-naphthyridine-7(8H)-carboxamide]
prevention of icilin-induced WDS ([2]; 10 mg/kg p.o., 90 min before icilin 0.5 mg/kg i.p.): Full prevention | ED50 ([2]; Rattus norvegicus, p.o., icilin 0.5 mg/kg i.p., read-out: Rat PD ED50): 1.8 mg/kg
